Reference: patent publication US20170304329A1 (THE UNIVERSITY OF KANSAS, priority 2014, published 2017)

Key:
Assay type in all cases: cell-based, human
[1] = tested on: 253JBV bladder cancer cell spheroids; experiment: Spheroid (bladdosphere) assay; details: I generation, 7 days
Excerpt: (§1) The spheroid assay, which is sometimes also called the 3D assay was developed as a method to propagate epithelial stem cells in vitro, and is now a standard surrogate reporter for stem cell activity. The assay (in this case called bladdosphere assay) is based on the hypothesis that the unique, undifferentiated cells present in bladder cancers will survive in suspension culture, while the other cells will die by anoikis. Therefore, we characterized the effect of ciclopirox (CPX) in bladdosphere assay. Here, cancer cells are plated in ultra-low binding plates and the resulting spheroids are believed to represent growth from stem cells.
(§2) For formation of spheroids, cells were cultured in RPMI 1640 (Mediatech) supplemented with 20 ng/mL bFGF (Invitrogen) 10 mL per 500 mL of 50×B27 supplement (Invitrogen) EGF 20 ng/mL (Invitrogen) and antibiotic and antimycotic solution. Cells were seeded at low densities (5000 cells/mL) in 6-well low adhesion plates. The cells were treated with increasing concentrations of CPX (0.5×, 1×, and 2× of IC50 calculated from cell proliferation assay—2 μM for 253JBV and 4 μM for T24). After 7 days the spheroids were photographed (I generation). Control spheroids and spheroids treated with CPX (1×IC50) were collected, trypsinized and re-plated for the secondary spheroid growth (II generation), followed by tertiary spheroid development (III generation).

[2] = tested on: T24 bladder cancer cell spheroids; experiment: Spheroid (bladdosphere) assay; details: I generation, 7 days
Excerpt: as §1, §2

[3] = tested on: Notch, Wnt and Hedgehog signaling pathways in T24 cells; experiment: RT-PCR array of signal transduction pathways
Method: We performed an RT-PCR array analyses as a preliminary study to identify the pathways affected by ciclopirox (CPX). Expression analysis was performed using RT2 Profiler™ PCR Arrays (SA Biosciences, Frederick, Md., USA) per the manufacturer's instructions. The Human signal transduction pathway finder polymerase chain reaction (PCR) array was used (cat. no. PAHS-014ZA). Briefly, Total RNA isolated from T24 cells using TRIZOL reagent was reverse transcribed with Superscript II reverse transcriptase in the presence of random hexanucleotide primers (all from Invitrogen, Carlsbad, Calif.). Complementary DNA (2 μg) was mixed with 1,275 μL RT2 SYBR Green qPCR Master Mix (PA-010; SA Biosciences) to make up a total volume of 2,550 μL. Each well received 25 μL of this mix. qPCR was performed on an Bio-Rad CFX machine following detection protocols recommended by SA Biosciences. Changes in mRNA expression were expressed as fold change relative to control.

[4] = tested on: Notch1 signaling and γ-secretase complex proteins in T24 cells; experiment: Western blot of Notch signaling pathway proteins; details: bladder cancer cell lines (T24)
Method: Western blot studies were performed to detect the effect of CPX on the expression of proteins involved in Notch signaling pathway. Cell lysates were subjected to polyacrylamide gel electrophoresis and blotted onto Immobilon polyvinylidene difluoride membranes (Millipore, Bedford, Mass., USA). Antibodies were purchased from Cell Signaling Technology (Beverly, Mass., USA), Abcam Inc. (Cambridge, Mass., USA) and Santa Cruz Biotechnology Inc. (Santa Cruz, Calif., USA) and specific proteins were detected by the enhanced chemiluminescence system (GE Healthcare, Piscataway, N.J., USA).

[5] = tested on: T24 cells transfected with Notch-1 intracellular domain (NICD); experiment: Ectopic NICD expression and cell proliferation; details: CPX 4 μM
Method: We determined whether ectopic expression of NICD reversed ciclopirox (CPX) mediated inhibition of cell proliferation. For this study, T24 Cells were transfected with plasmid EF.hICN1.CMV.GFP encoding the Notch-1 intracellular domain (NICD) or the empty vector EF.v-CMV.GFP (Addgene Inc.) and subsequently treated with CPX (4 μM). Cell proliferation was detected using hexoaminidase assay.

[6] = tested on: 253JBV cells; experiment: Proliferation with predicted CPX urine concentration in 20% normal urine; details: 3 days treatment, 50 uM-1.5625 uM CPX in 20% normal urine, 72 h
Method: We next determined the effect of CPX in normal urine on T24 and 253JBV cells upon everyday treatment for up to 72 h (3 days treatment). The idea behind this experiment is to see the effect of predicted concentration of CPX in human urine on bladder cancer cells as the patient's bladder will be exposed every day to the predicted concentration of CPX. Three sets of plates were used, one plate each for one day treatment, two days treatment and three days treatment of CPX (50-1.5625 uM). T24 and 253JBV cells were incubated with CPX in normal urine (20% normal urine in complete RPMI media). […] The effect of CPX was determined by hexosaminidase assay beyond the 12 hours of varying CPX concentration (25 h, 48 h, and 72 h). In two days treatment, the cells are exposed to 50 uM-1.5625 uM for two days and the effect was determined by hexosaminidase assay at 48 h and 72 h time points. In three days treatment, the cells are exposed to 50 uM-1.5625 uM for three days and the effect was determined by hexosaminidase assay at 72 h time point.
253JBV Cells were incubated with CPX in normal urine (20% normal urine in complete RPMI media). […] The effect of CPX was determined by hexosaminidase assay beyond the 12 hours of varying CPX concentration (25 h, 48 h, and 72 h). […]

[7] = tested on: T24 bladder cancer cells; experiment: Clonogenicity assay; details: 48 h treatment, then 10 days
Method: (§3) We next determined the long-term effect of ciclopirox (CPX) on bladder cancer cells using the clonogenicity assay. For this assay, 6-well plates were seeded with 500 viable cells and were allowed to grow for overnight. The cells were then incubated in the presence or absence of various concentrations (1 and 5 μM) of CPX for 48 h. The CPX containing medium was then removed, and the cells were washed in PBS and incubated for an additional 10 days in complete medium. Each treatment was done in triplicate. The colonies obtained were washed with PBS and fixed in 10% formalin for 10 min at room temperature and then washed with PBS followed by staining with crystal violet. The colonies were compared to untreated cells.
(§4) The fresh medium was replaced and allowed to grow for 10 days. The colonies were stained with crystal violet and compared to untreated cells.

[8] = tested on: 253-JBV bladder cancer cells; experiment: Clonogenicity assay; details: 48 h treatment, then 10 days
Method: as §3, §4

For `Cc1cc(C2CCCCC2)n(O)c(=O)c1` [CPX, 6-cyclohexyl-1-hydroxy-4-methylpyridin-2(1H)-one], the spheroid formation [1] was “significant decrease in size and number of spheroids”, the spheroid formation [2] was “significant decrease in size and number of spheroids” and the “mRNA expression of CSC signaling pathway genes” value [3] was “significantly reduced the mRNA expression of Notch and its downstream signaling proteins”. The “expression of Notch pathway proteins” value [4] was “significantly inhibited the expression of the γ-secretase complex proteins”, the “rescue of proliferation by NICD” value [5] was “Ectopic expression of NICD reversed CPX mediated inhibition of cell proliferation” and the “maximum inhibition of proliferation” value [6] was 35%. The colony formation [7] was “inhibited the number and size of colonies compared to control” and the colony formation [8] was “inhibited the number and size of colonies compared to control”.
